Columns and labels:
[1] = molecular target: D(2) dopamine receptor (Rattus norvegicus) (UniProt P61169); assay: Displacement of spiperone from dopamine receptor D2 of rat brain membrane
[2] = molecular target: Sigma non-opioid intracellular receptor 1 (Rattus norvegicus) (UniProt Q9R0C9); assay: Displacement of (+)-3PPP from sigma receptor of rat brain membrane
Sequence of Sigma non-opioid intracellular receptor 1 (Rattus norvegicus) (Q9R0C9 whole entry): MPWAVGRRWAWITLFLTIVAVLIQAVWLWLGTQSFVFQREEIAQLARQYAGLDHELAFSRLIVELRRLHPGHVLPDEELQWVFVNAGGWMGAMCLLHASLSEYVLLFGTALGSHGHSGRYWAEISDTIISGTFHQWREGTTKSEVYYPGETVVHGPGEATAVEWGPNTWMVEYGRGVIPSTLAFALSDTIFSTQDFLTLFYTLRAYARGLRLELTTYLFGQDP

Sequence of D(2) dopamine receptor (Rattus norvegicus) (P61169 whole entry): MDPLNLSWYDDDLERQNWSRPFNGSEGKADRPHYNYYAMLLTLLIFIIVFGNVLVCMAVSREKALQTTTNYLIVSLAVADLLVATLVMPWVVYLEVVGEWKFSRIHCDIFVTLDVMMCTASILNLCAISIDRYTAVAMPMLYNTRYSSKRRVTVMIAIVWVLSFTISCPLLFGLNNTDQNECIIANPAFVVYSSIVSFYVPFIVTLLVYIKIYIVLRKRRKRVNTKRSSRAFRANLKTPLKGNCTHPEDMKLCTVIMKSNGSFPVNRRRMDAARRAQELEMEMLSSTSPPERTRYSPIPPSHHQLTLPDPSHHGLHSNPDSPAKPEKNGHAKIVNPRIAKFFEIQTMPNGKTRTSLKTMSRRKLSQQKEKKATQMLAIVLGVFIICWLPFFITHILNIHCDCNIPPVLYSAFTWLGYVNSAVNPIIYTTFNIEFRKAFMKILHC

Row | SMILES | Log IC50 [1] | Log IC50 [2]
1 | CCc1ccc(N2CCC[C@@H](c3cccc(O)c3)C2)cc1 | 1.36 µM | 1.8 µM
2 | CC(C)N1CCC[C@H](c2cccc(O)c2)C1 | 1.08 µM | 0.61 µM
3 | CC(C)N1CCC[C@@H](c2cccc(O)c2)C1 | 0.45 µM | 0.68 µM
4 | CCCN1CCC[C@@H](c2cccc(O)c2)C1 | – | 0.81 µM
5 | CCCCN1CCC[C@H](c2cccc(O)c2)C1 | 0.43 µM | 2.05 µM
6 | CN1CCC[C@H](c2cccc(O)c2)C1 | 0.61 µM | 0.43 µM
7 | Oc1cccc([C@@H]2CCCNC2)c1 | 0.24 µM | 1.19 µM
8 | Oc1cccc([C@H]2CCCNC2)c1 | 0.36 µM | 0.66 µM
9 | CCCCN1CCC[C@@H](c2cccc(O)c2)C1 | 0.56 µM | 1.51 µM
10 | CCc1ccc(N2CCC[C@H](c3cccc(O)c3)C2)cc1 | 0.09 µM | 2.1 µM
11 | CCCN1CCC[C@H](c2cccc(O)c2)C1 | – | 1.52 µM

— ChEMBL document CHEMBL1127535, “Molecular similarity, quantitative chirality, and QSAR for chiral drugs” (J Med Chem, 1994)
